Laboratory results published in US11186564B2, “Dual NAV1.2/5HT2a inhibitors for treating CNS disorders” (Sunovion Pharmaceuticals Inc., priority 2016, dated 2021).

How the values were obtained:
[1] = target: human sodium channel NaV1.2 (Homo sapiens, UniProt Q99250); test: NaV1.2 inhibition, automated patch-clamp (Q-Patch HTX), slow inactivated state (state C); format: cell-based; conditions: hNaV1.2 CHO cells, slow inactivated state; for IC50: read-out: NaV1.2 IC50; for inhibition at 1 µM: 1 μM compound, read-out: NaV1.2 (% inh), 1 μM; for inhibition at 10 µM: 10 μM compound, read-out: NaV1.2 (% inh), 10 μM
How it was run: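 CHO K-1 cells stably expressing human NaV1.2, whole-cell automated patch clamp, holding −100 mV; slow-inactivated state (state C) read at a 5 ms step to 0 mV after 10 s at −50 mV and 15 ms at −90 mV. Percent inhibition vs vehicle; IC50 by nonlinear least-squares fit.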

[2] = target: T1, recombinant human serotonin receptor 5-HT2A (Homo sapiens, UniProt P28223); test: 5-HT2A antagonist Ca2+ assay in CHO-K1 cells (method A aequorin luminescence / method B FLIPR fluorescence); format: cell-based; conditions: antagonist mode vs EC80 of reference agonist, method A or B, read-out: 5HT2A IC50
T1 construct: expressed in transfected cells; method B: loaded with Ca2+ dye
How it was run: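 Method A: CHO-K1 cells co-expressing human 5-HT2A and mitochondrial apoaequorin were given reference agonist at EC80 15 min after compound, with luminescence read. Method B: dye-loaded 5-HT2A CHO-K1 cells were pretreated with compound, then given serotonin at EC80, with FLIPR fluorescence read. IC50s came from nonlinear fits of percent inhibition.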

human sodium channel NaV1.2, sequence (Q99250 whole entry): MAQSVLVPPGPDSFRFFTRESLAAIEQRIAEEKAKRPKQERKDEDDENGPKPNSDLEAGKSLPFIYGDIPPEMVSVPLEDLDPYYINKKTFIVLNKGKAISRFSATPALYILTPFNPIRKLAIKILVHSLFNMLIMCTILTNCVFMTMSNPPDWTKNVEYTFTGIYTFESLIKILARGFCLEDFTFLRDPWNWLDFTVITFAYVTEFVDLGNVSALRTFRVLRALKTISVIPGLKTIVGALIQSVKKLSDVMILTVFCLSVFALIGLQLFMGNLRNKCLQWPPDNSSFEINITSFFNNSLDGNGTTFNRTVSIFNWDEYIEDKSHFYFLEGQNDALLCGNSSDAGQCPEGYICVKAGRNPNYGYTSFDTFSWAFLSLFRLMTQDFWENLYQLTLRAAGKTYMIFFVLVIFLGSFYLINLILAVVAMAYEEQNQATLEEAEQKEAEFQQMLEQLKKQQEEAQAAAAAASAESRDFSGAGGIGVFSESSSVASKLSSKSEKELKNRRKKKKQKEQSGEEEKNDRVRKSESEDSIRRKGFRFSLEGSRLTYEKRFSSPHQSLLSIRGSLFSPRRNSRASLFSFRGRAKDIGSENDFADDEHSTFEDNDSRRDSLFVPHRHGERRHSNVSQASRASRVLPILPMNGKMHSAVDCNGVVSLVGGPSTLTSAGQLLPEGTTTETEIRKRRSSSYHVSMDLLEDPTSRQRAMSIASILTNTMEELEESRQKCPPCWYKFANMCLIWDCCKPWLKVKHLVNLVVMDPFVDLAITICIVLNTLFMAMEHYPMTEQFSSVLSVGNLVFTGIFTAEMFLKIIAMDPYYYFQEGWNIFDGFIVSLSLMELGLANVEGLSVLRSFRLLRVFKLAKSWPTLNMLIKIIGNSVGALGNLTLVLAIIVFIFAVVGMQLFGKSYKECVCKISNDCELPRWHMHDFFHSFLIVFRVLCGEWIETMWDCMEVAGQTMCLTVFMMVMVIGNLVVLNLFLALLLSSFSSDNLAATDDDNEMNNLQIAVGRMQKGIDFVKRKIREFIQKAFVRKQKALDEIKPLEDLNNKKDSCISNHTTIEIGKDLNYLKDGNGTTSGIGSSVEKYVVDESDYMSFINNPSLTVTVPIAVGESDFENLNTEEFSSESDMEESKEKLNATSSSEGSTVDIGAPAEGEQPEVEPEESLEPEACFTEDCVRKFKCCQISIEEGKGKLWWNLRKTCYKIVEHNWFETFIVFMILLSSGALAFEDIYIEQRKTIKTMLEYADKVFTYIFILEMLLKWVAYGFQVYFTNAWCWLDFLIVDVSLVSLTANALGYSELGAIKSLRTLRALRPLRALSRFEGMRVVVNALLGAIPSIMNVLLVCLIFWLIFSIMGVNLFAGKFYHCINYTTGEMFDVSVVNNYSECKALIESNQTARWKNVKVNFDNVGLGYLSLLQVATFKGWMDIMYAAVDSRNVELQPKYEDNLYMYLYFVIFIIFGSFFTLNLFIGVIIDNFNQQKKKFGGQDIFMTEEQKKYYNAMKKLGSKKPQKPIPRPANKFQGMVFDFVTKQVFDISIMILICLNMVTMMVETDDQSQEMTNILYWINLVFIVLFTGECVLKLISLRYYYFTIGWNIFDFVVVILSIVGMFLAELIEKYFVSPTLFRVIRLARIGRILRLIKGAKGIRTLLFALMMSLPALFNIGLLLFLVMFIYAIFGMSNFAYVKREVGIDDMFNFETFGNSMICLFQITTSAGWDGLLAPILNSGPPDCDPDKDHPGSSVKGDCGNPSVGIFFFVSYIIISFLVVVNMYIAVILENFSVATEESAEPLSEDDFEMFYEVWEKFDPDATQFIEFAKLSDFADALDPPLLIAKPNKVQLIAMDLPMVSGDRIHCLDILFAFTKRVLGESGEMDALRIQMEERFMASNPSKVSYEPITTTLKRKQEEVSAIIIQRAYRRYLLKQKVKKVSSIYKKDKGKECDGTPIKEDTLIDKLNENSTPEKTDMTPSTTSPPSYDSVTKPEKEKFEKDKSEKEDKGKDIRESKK
T1 sequence (P28223 whole entry): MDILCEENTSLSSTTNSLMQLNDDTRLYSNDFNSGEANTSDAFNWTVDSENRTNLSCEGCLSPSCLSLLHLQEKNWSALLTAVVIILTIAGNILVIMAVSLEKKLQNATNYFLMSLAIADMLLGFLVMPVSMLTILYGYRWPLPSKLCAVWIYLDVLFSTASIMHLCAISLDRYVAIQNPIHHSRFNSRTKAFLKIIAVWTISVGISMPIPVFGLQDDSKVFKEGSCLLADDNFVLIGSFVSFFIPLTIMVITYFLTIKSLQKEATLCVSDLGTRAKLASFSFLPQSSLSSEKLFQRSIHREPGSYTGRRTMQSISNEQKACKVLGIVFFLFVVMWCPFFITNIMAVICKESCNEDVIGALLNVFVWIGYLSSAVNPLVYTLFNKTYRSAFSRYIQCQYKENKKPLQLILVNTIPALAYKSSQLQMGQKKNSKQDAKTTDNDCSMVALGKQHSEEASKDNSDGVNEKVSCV

O[C@H](COC1CCCCC1)CN1CCC2(CCc3ccccc3O2)CC1 [Example 437, (S)-1-(cyclohexyloxy)-3-(spiro[chromane-2,4′-piperidin]-1′-yl)propan-2-ol]
IC50 [1]: 3410 nM
IC50 [2]: 90 nM

N#Cc1ccc(OC2CCN(CC3CCOc4ccccc43)CC2)cc1 (stereo not shown) [Example 166, 4-((1-(chroman-4-ylmethyl)piperidin-4-yl)oxy)benzonitrile]
inhibition at 1 µM [1]: -2%
IC50 [2]: 310 nM

O=C(NCCN1CCCCC1)c1cccc(-c2ccc(Oc3ccc(F)cc3)cc2)n1 [Example 447, 6-(4-(4-fluorophenoxy)phenyl)-N-(2-(piperidin-1-yl)ethyl)picolinamide]
inhibition at 10 µM [1]: 99%
IC50 [2]: 1260 nM

OC(COc1ccccc1)CN1CCC2(CC1)Cc1ccccc1O2 (stereo not shown) [Example 399, 1-phenoxy-3-(3H-spiro[benzofuran-2,4′-piperidin]-1′-yl)propan-2-ol]
inhibition at 10 µM [1]: 92%
IC50 [2]: 1830 nM

c1ccc(O[C@@H]2COC3(CCN(C[C@@H]4CCc5ccccc54)CC3)C2)cc1 (single isomer, unassigned) [Compound 383]
IC50 [1]: 110 nM
IC50 [2]: 340 nM

COc1ccc2c(c1)C(CN1CCC[C@@H](Oc3ccc(F)cc3)C1)CC2 (stereo partly drawn) [Example 255, (3R)-3-(4-fluorophenoxy)-1-((6-methoxy-2,3-dihydro-1H-inden-1-yl)methyl)piperidine]
inhibition at 1 µM [1]: 14%
IC50 [2]: 360 nM

Fc1ccc(OC2COC3(C2)CN(CC2Cc4cccnc4C2)C3)cc1 (stereo not shown) [Example 370, 2-((6,7-dihydro-5H-cyclopenta[b]pyridin-6-yl)methyl)-7-(4-fluorophenoxy)-5-oxa-2-azaspiro[3.4]octane]
IC50 [1]: 2010 nM
IC50 [2]: 100 nM

COc1ccc2c(c1)C(CN1CC3CCC1CN3c1ccccc1)CC2 (single isomer, unassigned) [Example 310]
IC50 [1]: 700 nM
IC50 [2]: 30 nM

COc1ccccc1O[C@H]1CCN(CC2Cc3cccnc3C2)[C@@H](C)C1 (stereo partly drawn) [Example 150, 6-(((2S,4S)-4-(2-methoxyphenoxy)-2-methylpiperidin-1-yl)methyl)-6,7-dihydro-5H-cyclopenta[b]pyridine]
inhibition at 1 µM [1]: 14%
IC50 [2]: 720 nM

Fc1ccc(OC2CCN(CCC3CCc4ccccc43)CC2)cc1 (stereo not shown) [Example 171, 1-(2-(2,3-dihydro-1H-inden-1-yl)ethyl)-4-(4-fluorophenoxy)piperidine]
IC50 [1]: 40 nM
IC50 [2]: 60 nM

O=C1Cc2ccccc2N1CCCN1CCC(Oc2ccc(F)cc2)CC1 [Example 219, 1-(3-(4-(4-fluorophenoxy)piperidin-1-yl)propyl)indolin-2-one]
inhibition at 10 µM [1]: 54%
IC50 [2]: 10 nM

Fc1ccc(OC2CCN(CC3Cc4ccncc4C3)CC2)cc1 (stereo not shown) [Example 158, 6-((4-(4-fluorophenoxy)piperidin-1-yl)methyl)-6,7-dihydro-5H-cyclopenta[c]pyridine]
inhibition at 1 µM [1]: -15%
IC50 [2]: 150 nM

O=C1c2ccccc2CN1CCN1CCC(Oc2ccc(F)cc2)CC1 [Example 187, 2-(2-(4-(4-fluorophenoxy)piperidin-1-yl)ethyl)isoindolin-1-one]
inhibition at 1 µM [1]: 14%
IC50 [2]: 70 nM

Fc1ccc(O[C@H]2CCN(CC3COCc4ccccc43)C2)cc1 (stereo partly drawn) [Example 12, (3S)-3-(4-fluorophenoxy)-1-(isochroman-4-ylmethyl)pyrrolidine]
IC50 [1]: 3230 nM
IC50 [2]: 300 nM

O=C1c2ccccc2CCN1CCN1CCCC(Oc2ccc(F)cc2)CC1 (stereo not shown) [Example 274, 2-(2-(4-(4-fluorophenoxy)azepan-1-yl)ethyl)-3,4-dihydroisoquinolin-1(2H)-one]
inhibition at 1 µM [1]: 27%
IC50 [2]: 190 nM

COc1cccc(OC2CCN(CCCN3CCc4ccccc4C3=O)CC2)c1 [Example 221, 2-(3-(4-(3-methoxyphenoxy)piperidin-1-yl)propyl)-3,4-dihydroisoquinolin-1(2H)-one]
IC50 [1]: 1000 nM
IC50 [2]: 980 nM

COc1ccccc1CCN1CCC2(CCc3ccccc3O2)CC1 [Example 428, 1′-(2-methoxyphenethyl) spiro[chromane-2,4′-piperidine]]
inhibition at 10 µM [1]: 86%
IC50 [2]: 190 nM

c1ccc([C@H]2COC3(CCN(C[C@H]4CCc5ccccc54)CC3)C2)cc1 (single isomer, unassigned) [Compound 377]
IC50 [1]: 790 nM
IC50 [2]: 30 nM

Fc1ccc(OC2CCN(CCC3Cc4ccccc4C3)CC2)cc1 [Example 178, 1-(2-(2,3-dihydro-1H-inden-2-yl)ethyl)-4-(4-fluorophenoxy)piperidine]
IC50 [1]: 1900 nM
IC50 [2]: 30 nM

O[C@H](COC1CCCCC1)CN1CCC2(CCN(c3ccccc3)C2)C1 (stereo partly drawn) [Example 345, (2S)-1-(cyclohexyloxy)-3-(7-phenyl-2,7-diazaspiro[4.4]nonan-2-yl)propan-2-ol]
IC50 [1]: 1900 nM
IC50 [2]: 240 nM

c1ccc(C2COC3(CCN(CC4CCc5ccccc54)CC3)C2)cc1 (single isomer, unassigned) [Example 375, 8-((2,3-dihydro-1H-inden-1-yl)methyl)-3-phenyl-1-oxa-8-azaspiro[4,5]decane]
IC50 [1]: 350 nM
IC50 [2]: 260 nM

c1ccc2c(c1)CCC1(CCN(CC3CCc4ccccc43)CC1)O2 (stereo not shown) [Example 401, 1′-((2,3-dihydro-1H-inden-1-yl)methyl)spiro[chromane-2,4′-piperidine]]
IC50 [1]: 110 nM
IC50 [2]: 50 nM

O=C1c2ccccc2CCCN1CCCN1CCC(Oc2ccc(F)cc2)CC1 [Example 223, 2-(3-(4-(4-fluorophenoxy)piperidin-1-yl)propyl)-2,3,4,5-tetrahydro-1H-benzo[c]azepin-1-one]
inhibition at 10 µM [1]: 68%
IC50 [2]: 30 nM

COc1ccccc1O[C@@H]1CCN(CC2Cc3ccccc3C2)C[C@@H]1C [Example 144, (3S,4R)-1-((2,3-dihydro-1H-inden-2-yl)methyl)-4-(2-methoxyphenoxy)-3-methylpiperidine]
IC50 [1]: 540 nM
IC50 [2]: 270 nM

OC1(CN2CC[C@@H](Oc3ccc(F)cc3)C2)COCc2ccccc21 (stereo partly drawn) [Example 9, 4-(((R)-3-(4-fluorophenoxy)pyrrolidin-1-yl)methyl)isochroman-4-ol]
inhibition at 1 µM [1]: 1%
IC50 [2]: 600 nM

N#Cc1cccc2c1CCC2CN1CCC(Oc2ccc(F)cc2)CC1 (stereo not shown) [Example 122, 1-((4-(4-fluorophenoxy)piperidin-1-yl)methyl)-2,3-dihydro-1H-indene-4-carbonitrile]
IC50 [1]: 110 nM
IC50 [2]: 90 nM

c1ccc2c(c1)CCC1(CCN(CCC3COCc4ccccc43)CC1)O2 (stereo not shown) [Example 421, 1′-(2-(isochroman-4-yl)ethyl)spiro[chromane-2,4′-piperidine]]
inhibition at 1 µM [1]: 29%
IC50 [2]: 130 nM

COc1ccccc1OC1CCN(CC2Cc3cccnc3C2)CC1 (stereo not shown) [Example 139, 6-((4-(2-methoxyphenoxy)piperidin-1-yl)methyl)-6,7-dihydro-5H-cyclopenta[b]pyridine]
inhibition at 1 µM [1]: -10%
IC50 [2]: 180 nM

Cc1cccc(N2CCN(CC(O)COC3COc4cccnc43)CC2)c1C (stereo not shown) [Example 82, 1-((2,3-dihydrofuro[3,2-b]pyridin-3-yl)oxy)-3-(4-(2,3-dimethylphenyl)piperazin-1-yl)propan-2-ol]
IC50 [1]: 1350 nM
IC50 [2]: 40 nM

Fc1ccc(O[C@H]2CCN(CC3CCc4cccnc43)C2)cc1 (stereo partly drawn) [Example 8, 7-(((S)-3-(4-fluorophenoxy)pyrrolidin-1-yl)methyl)-6,7-dihydro-5H-cyclopenta[b]pyridine]
IC50 [1]: 7450 nM
IC50 [2]: 980 nM

O=C1c2ccccc2CCN1CCCN1CCC(Oc2ccc(F)cc2)CC1 [Example 222, 2-(3-(4-(4-fluorophenoxy)piperidin-1-yl)propyl)-3,4-dihydroisoquinolin-1(2H)-one]
IC50 [1]: 1300 nM
IC50 [2]: 60 nM

COc1ccc2c(c1)CCCN(CCN1CCC(Oc3ccc(F)cc3)CC1)C2=O [Example 212, 2-(2-(4-(4-fluorophenoxy)piperidin-1-yl)ethyl)-7-methoxy-2,3,4,5-tetrahydro-1H-benzo[c]azepin-1-one]
inhibition at 10 µM [1]: 48%
IC50 [2]: 10 nM

Fc1ccc(O[C@H]2CCCN(CC3COCc4ccccc43)C2)cc1 (stereo partly drawn) [Example 261, (3S)-3-(4-fluorophenoxy)-1-(isochroman-4-ylmethyl)piperidine]
inhibition at 1 µM [1]: 22%
IC50 [2]: 350 nM

Fc1ccc(OC2CCN(CC3CCc4ccccc43)CC2)cc1 (stereo not shown) [Example 112, 1-((2,3-dihydro-1H-inden-1-yl)methyl)-4-(4-fluorophenoxy)piperidine]
IC50 [1]: 1440 nM
IC50 [2]: 4 nM

O[C@H](COC1CCCCC1)CN1CC2(CC(c3ccccc3)CO2)C1 (stereo partly drawn) [Example 360, (2S)-1-(cyclohexyloxy)-3-(7-phenyl-5-oxa-2-azaspiro[3.4]octan-2-yl)propan-2-ol]
inhibition at 1 µM [1]: 4%
IC50 [2]: 130 nM

Cc1ccccc1OC1CCN(CC2Cc3cccnc3C2)CC1 (stereo not shown) [Example 137, 6-((4-(o-tolyloxy)piperidin-1-yl)methyl)-6,7-dihydro-5H-cyclopenta[b] pyridine]
inhibition at 1 µM [1]: 44%
IC50 [2]: 40 nM

c1ccc2c(c1)CCC1(CCN(CCC3CCc4ccccc43)CC1)O2 (stereo not shown) [Example 418, 1′-(2-(2,3-dihydro-1H-inden-1-yl)ethyl)spiro[chromane-2,4′-piperidine]]
IC50 [1]: 1130 nM
IC50 [2]: 160 nM

O[C@@H](COc1ccccc1)CN1CCC2(CCc3ccccc3O2)CC1 [Example 441, (R)-1-phenoxy-3-(spiro[chromane-2,4′-piperidin]-1′-yl)propan-2-ol]
inhibition at 1 µM [1]: 17%
IC50 [2]: 30 nM
